Molecular target: T1, human renal renin (Homo sapiens, UniProt P00797)
T1 construct: human renal renin, free from acid proteolytic activity; from tissue; host or cells: human kidney (renal)
T1 sequence (P00797 67-406): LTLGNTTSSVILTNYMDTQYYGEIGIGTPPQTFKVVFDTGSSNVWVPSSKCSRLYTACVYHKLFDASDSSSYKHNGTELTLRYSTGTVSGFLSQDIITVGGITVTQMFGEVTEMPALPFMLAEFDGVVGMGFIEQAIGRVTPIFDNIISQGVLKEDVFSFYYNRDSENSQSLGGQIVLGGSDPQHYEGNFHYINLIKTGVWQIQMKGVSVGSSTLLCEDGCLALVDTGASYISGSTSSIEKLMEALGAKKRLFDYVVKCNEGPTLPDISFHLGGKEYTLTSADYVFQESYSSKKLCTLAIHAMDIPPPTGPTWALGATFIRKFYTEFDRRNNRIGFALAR
Test: inhibition of human renal renin in vitro, angiotensin I formed measured by radioimmunoassay
Assay type: biochemical
Conditions: human renal renin with human renin substrate (angiotensinogen), 37° C., pH 6.0

Row | Compound | IC50 [nM]
1 | 2(R,S)-(4-morpholinylcarbonylmethyl)-3-(1'-naphthyl)-propionyl-His-ACHPA-amide of 2-methylbutylamine [Example 87] | 2
2 | 2(R,S)-(4-morpholinylcarbonylmethyl)-3-(4'-methoxyphenyl)-propionyl-His-ACHPA-amide of 2-methylbutylamine [Example 89] | 61
3 | CC(C)CC(NC(=O)C(Cc1cnc[nH]1)NC(=O)C(Cc1ccccc1)NC(=O)OC(C)(C)C)C(O)CC(=O)NCc1ccccc1 (stereo not drawn) [Example 10, Boc-Phe-His-Sta amide of benzylamine] | 700
4 | CC(C)CNC(=O)CC(O)C(CC(C)C)NC(=O)C(Cc1cnc[nH]1)NC(=O)C(Cc1ccccc1)NC(=O)OC(C)(C)C (stereo not drawn) [Example 12, Boc-Phe-His-Sta amide of isobutylamine] | 500
5 | CCC(C)C(CO)NC(=O)CC(O)C(CC(C)C)NC(=O)C(C)NC(=O)C(Cc1cccc2ccccc12)NC(=O)OC(C)(C)C (stereo not drawn) [Example 13, Boc-(α-Naphthyl)Ala-Ala-Sta-amide of isoleucinol] | 50
6 | CCC(C)CNC(=O)CC(O)C(CC(C)C)NC(=O)C(Cc1cnc[nH]1)NC(=O)C(Cc1ccccc1)NC(=O)CC(C)(C)C (stereo not drawn) [Example 16, t-Butylacetyl-Phe-His-Sta amide of 2-methylbutylamine] | 100
7 | CCC(C)CNC(=O)C[C@H](O)[C@H](CC(C)C)NC(=O)[C@H](Cc1c[nH]cn1)NC(=O)[C@H](Cc1ccc(I)cc1)NC(=O)OC(C)(C)C (stereo partly drawn) [Example 17, Boc-p-iodo-Phe-His-Sta amide of 2-methylbutylamine] | 1000
8 | CC(C)CCNC(=O)CC(O)C(CC1CCCCC1)NC(=O)C(Cc1cnc[nH]1)NC(=O)C(Cc1ccccc1)NC(=O)OC(C)(C)C (stereo not drawn) [Example 25, Boc-Phe-His-ACHPA amide of isopentylamine] | 5
9 | CCC(C)CNC(=O)C(OCc1ccccc1)C(O)C(CC1CCCCC1)NC(=O)[C@H](C)NC(=O)[C@H](Cc1ccccc1)NC(=O)OC(C)(C)C (stereo partly drawn) [Example 32, Boc-Phe-Alaninyl-4-amino-2-benzyloxy-3-hydroxy-5-cyclohexylpentanoic acid amide of 2-methylbutylamine] | 6
10 | CCC(C)CNC(=O)C(OCc1ccccc1)C(O)C(CC1CCCCC1)NC(=O)C(Cc1cnc[nH]1)NC(=O)C(Cc1ccccc1)NC(=O)OC(C)(C)C (stereo not drawn) [Example 33, Boc-Phe-Histidinyl-4-amino-2-benzyloxy-3-hydroxy-5-cyclohexylpentanoic acid amide of 2-methylbutylamine] | 35
11 | CCC(C)CNC(=O)C(O)C(O)C(CC1CCCCC1)NC(=O)C(C)NC(=O)C(Cc1ccccc1)NC(=O)OC(C)(C)C (stereo not drawn) [Example 34, Boc-Phe-Alaninyl-4-amino-2,3-dihydroxy-5-cyclohexylpentanoic acid amide of 2-methylbutylamine] | 20
12 | CCC(C)CNC(=O)C(O)C(O)C(CC1CCCCC1)NC(=O)C(Cc1cnc[nH]1)NC(=O)C(Cc1ccccc1)NC(=O)OC(C)(C)C (stereo not drawn) [Example 35, Boc-Phe-Histidinyl-4-amino-2,3-dihydroxy-5-cyclohexylpentanoic acid amide of 2-methylbutylamine] | 7
13 | CCC(C)CNC(=O)C(OC)C(O)C(CC1CCCCC1)NC(=O)[C@H](Cc1cnc[nH]1)NC(=O)[C@H](Cc1ccccc1)NC(=O)OC(C)(C)C (stereo partly drawn) [Example 40, Boc-Phe-Histidinyl-4-amino-2-methoxy-3-hydroxy-5-cyclohexylpentanoic acid amide of 2-methylbutylamine] | 30
14 | C=CCC(C(=O)NCC(C)CC)C(O)C(CC1CCCCC1)NC(=O)C(Cc1cnc[nH]1)NC(=O)C(Cc1ccccc1)NC(=O)OC(C)(C)C (stereo not drawn) [Example 45, Boc-Phe-Histidinyl-4-amino-2-allyl-3-hydroxy-5-cyclohexylpentanoic acid amide of 2-methylbutylamine] | 1
15 | CCCC(C(=O)NCC(C)CC)C(O)C(CC1CCCCC1)NC(=O)C(Cc1cnc[nH]1)NC(=O)C(Cc1ccccc1)NC(=O)OC(C)(C)C (stereo not drawn) [Example 46, Boc-Phe-Histidinyl-4-amino-2-propyl-3-hydroxy-5-cyclohexylpentanoic acid amide of 2-methylbutylamine] | 1.5
16 | CCC(C)CNC(=O)C(OC)C(O)C(CC1CCCCC1)NC(=O)C(CCSC)NC(=O)C(Cc1ccccc1)NC(=O)OC(C)(C)C (stereo not drawn) [Example 47, Boc-Phe-Methioninyl-4-amino-2-methoxy-3-hydroxy-5-cyclohexylpentanoic acid amide of 2-methylbutylamine] | 1
17 | CCC(C)CNC(=O)C(OC)C(O)C(CC1CCCCC1)NC(=O)C(CSC)NC(=O)C(Cc1ccccc1)NC(=O)OC(C)(C)C (stereo not drawn) [Example 48, Boc-Phe-S-methylcysteinyl-4-amino-2-methoxy-3-hydroxy-5-cyclohexlpentanoic acid amide of 2-methylbutylamine] | 0.7
18 | C=CCC(C(=O)NCC(C)CC)C(O)C(CC1CCCCC1)NC(=O)C(C)NC(=O)C(Cc1ccccc1)NC(=O)OC(C)(C)C (stereo not drawn) [Example 49, Boc-Phe-Alaninyl-4-amino-2-allyl-3-hydroxy-5-cyclohexylpentanoic acid amide of 2-methylbutylamine] | 1.5
19 | C=CCC(C(=O)NCC(C)CC)C(O)C(CC1CCCCC1)NC(=O)C(CSC)NC(=O)C(Cc1ccccc1)NC(=O)OC(C)(C)C (stereo not drawn) [Example 50, Boc-Phe-S-methylcysteinyl-4-amino-2-allyl-3-hydroxy-5-cyclohexylpentanoic acid amide of 2-methylbutylamine] | 1
20 | CCC(C)CNC(=O)CC(O)C(CC1SCCS1)NC(=O)[C@H](CSC)NC(=O)[C@H](Cc1ccccc1)NC(=O)OC(C)(C)C (stereo partly drawn) [Example 78, Boc-Phe-S-methylcysteinyl-[3-hydroxy-4-amino-5-(1',3'-dithiolan-2'-yl)]-pentanoic acid amide of 2-methylbutylamine] | 1
21 | CCC(C)CNC(=O)CC(O)C(CC1SCCCS1)NC(=O)C(CSC)NC(=O)C(Cc1ccccc1)NC(=O)OC(C)(C)C (stereo not drawn) [Example 79, Boc-Phe-S-methylcysteinyl-[3-hydroxy-4-amino-5-(1',3'-dithian-2'-yl)]-pentanoic acid amide of 2-methylbutylamine] | 6
22 | CCC(C)CNC(=O)CC(O)C(CC1OCCO1)NC(=O)C(CSC)NC(=O)C(Cc1ccccc1)NC(=O)OC(C)(C)C (stereo not drawn) [Example 80, Boc-Phe-S-methylcysteinyl-[3-hydroxy-4-amino-5-(1',3'-dioxolan-2'-yl)]-pentanoic acid amide of 2-methylbutylamine] | 600
23 | CCC(C)CNC(=O)CC(O)C(CC1OCCCO1)NC(=O)[C@H](CSC)NC(=O)[C@H](Cc1ccccc1)NC(=O)OC(C)(C)C (stereo partly drawn) [Example 81, Boc-Phe-S-methylcysteinyl-[3-hydroxy-4-amino-5-(1',3'-dioxan-2'-yl)]-pentanoic acid amide of 2-methylbuylamine] | 700
24 | CCOC(=O)N[C@@H](Cc1ccccc1)C(=O)N[C@@H](CC(C)C)C(=O)NC(CC1OCCCO1)C(O)CC(=O)NCC(C)CC (stereo partly drawn) [Example 82, Ethoxycarbonyl-Phe-Leu-[3-hydroxy-4-amino-5-(1',3'-dioxan-2'-yl)]-pentanoicacid amide of 2-methylbutylamine] | 7500
25 | CCC(C)CNC(=O)CC(O)C(CC1SCCS1)NC(=O)C(Cc1cnc[nH]1)NC(=O)C(Cc1ccccc1)NC(=O)OC(C)(C)C (stereo not drawn) [Example 83, Boc-Phe-His-[3-hydroxy-4-amino-5-(1',3'-dithiolan-2'-yl)]-pentanoic acid amide of 2-methylbutylamine] | 1.5
26 | CCC(C)CNC(=O)CC(O)C(CC1CCCCC1)NC(=O)C(CSC)NC(=O)C(Cc1ccccc1)NC(=O)N1C[C@@H](O)[C@@H](O)C1 (stereo partly drawn) [Example 95, (3,4-cis-dihydroxypyrrolidinylcarbonyl)-Phe-S-methyl-cys-ACHPA-amide of 2-Methylbutylamine] | 0.56
27 | (3,4-cis-dihydroxypyrrolidinylcarbonyl)-O-methyl-Tyr-O-methyl-Ser-ACHPA Amide of 2-Methylbutylamine [Example 97] | 16
28 | Boc-(α-Naphthyl)-Ala-Ala-Sta amide of benzylamine [Example 11] | 400

Reference: US4826958A, “Renin inhibiting compounds” (Abbott Laboratories, priority 1988, dated 1989)
